In ChEMBL document CHEMBL5500344, “Design, synthesis and biological evaluation of matrine contains benzimidazole derivatives as dual TOPOI and PARP inhibitors for cancer therapy” (Eur J Med Chem, 2024):
Calls of active or inactive are those of the source. The calls are words filed in the database; no cut-off is given here.

Columns and labels:
[1] = target: Poly [ADP-ribose] polymerase 1 (Homo sapiens, UniProt P09874); test: Inhibition of PARP-1 (unknown origin) incubated for 70 mins by HT universal chemiluminescent assay
Sequence of Poly [ADP-ribose] polymerase 1 (P09874 whole entry): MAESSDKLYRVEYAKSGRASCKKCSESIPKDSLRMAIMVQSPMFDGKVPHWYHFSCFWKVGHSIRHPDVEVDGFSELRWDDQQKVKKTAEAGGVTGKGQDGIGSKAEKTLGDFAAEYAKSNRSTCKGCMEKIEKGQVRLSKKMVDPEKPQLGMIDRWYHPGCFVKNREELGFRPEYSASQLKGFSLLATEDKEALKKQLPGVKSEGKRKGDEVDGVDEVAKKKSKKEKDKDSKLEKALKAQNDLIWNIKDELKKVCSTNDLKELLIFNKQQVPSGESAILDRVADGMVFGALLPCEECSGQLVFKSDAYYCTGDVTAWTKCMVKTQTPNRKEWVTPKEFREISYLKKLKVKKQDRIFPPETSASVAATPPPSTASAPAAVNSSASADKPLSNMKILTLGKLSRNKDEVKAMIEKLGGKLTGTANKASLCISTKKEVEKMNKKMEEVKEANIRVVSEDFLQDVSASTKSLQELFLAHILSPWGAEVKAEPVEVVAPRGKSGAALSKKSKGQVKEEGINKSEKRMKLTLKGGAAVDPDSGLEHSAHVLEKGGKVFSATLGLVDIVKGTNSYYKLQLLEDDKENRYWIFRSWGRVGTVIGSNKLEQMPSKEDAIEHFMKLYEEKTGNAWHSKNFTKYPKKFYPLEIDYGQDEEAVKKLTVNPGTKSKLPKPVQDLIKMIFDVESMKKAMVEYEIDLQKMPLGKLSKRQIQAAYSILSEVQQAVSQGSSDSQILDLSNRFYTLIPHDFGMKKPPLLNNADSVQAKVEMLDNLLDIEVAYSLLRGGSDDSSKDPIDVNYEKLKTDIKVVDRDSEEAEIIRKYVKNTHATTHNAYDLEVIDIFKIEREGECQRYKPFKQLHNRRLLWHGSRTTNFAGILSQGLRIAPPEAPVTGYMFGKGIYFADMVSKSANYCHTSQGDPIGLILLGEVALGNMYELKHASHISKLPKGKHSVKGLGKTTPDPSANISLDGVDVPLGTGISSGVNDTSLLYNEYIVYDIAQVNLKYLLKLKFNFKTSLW

L02 = test: Antiproliferative activity against human L02 cells assessed as inhibition of cell growth incubated for 48 hrs by MTT assay; format: functional, cell-based; conditions: L02, 48 h
HeLa = test: Antiproliferative activity against human HeLa cells assessed as inhibition of cell growth incubated for 48 hrs by MTT assay; format: functional, cell-based
A549 = test: Antiproliferative activity against human A549 cells assessed as inhibition of cell growth incubated for 48 hrs by MTT assay; format: functional, cell-based; conditions: A549, 48 h
HepG2 = test: Antiproliferative activity against human HepG2 cells assessed as inhibition of cell growth incubated for 48 hrs by MTT assay; format: functional, cell-based; conditions: HepG2, 48 h
[2] = target: T1, DNA topoisomerase 1 (Homo sapiens) (UniProt P11387); test: Inhibition of human topoisomerase 1 assessed as relaxation of supercoiled pBR322 plasmid DNA at 100 uM incubated for 10 to 15 mins by EtBr staining based agarose gel electrophoresis method; conditions: time 10-15 min
T1 sequence (whole entry): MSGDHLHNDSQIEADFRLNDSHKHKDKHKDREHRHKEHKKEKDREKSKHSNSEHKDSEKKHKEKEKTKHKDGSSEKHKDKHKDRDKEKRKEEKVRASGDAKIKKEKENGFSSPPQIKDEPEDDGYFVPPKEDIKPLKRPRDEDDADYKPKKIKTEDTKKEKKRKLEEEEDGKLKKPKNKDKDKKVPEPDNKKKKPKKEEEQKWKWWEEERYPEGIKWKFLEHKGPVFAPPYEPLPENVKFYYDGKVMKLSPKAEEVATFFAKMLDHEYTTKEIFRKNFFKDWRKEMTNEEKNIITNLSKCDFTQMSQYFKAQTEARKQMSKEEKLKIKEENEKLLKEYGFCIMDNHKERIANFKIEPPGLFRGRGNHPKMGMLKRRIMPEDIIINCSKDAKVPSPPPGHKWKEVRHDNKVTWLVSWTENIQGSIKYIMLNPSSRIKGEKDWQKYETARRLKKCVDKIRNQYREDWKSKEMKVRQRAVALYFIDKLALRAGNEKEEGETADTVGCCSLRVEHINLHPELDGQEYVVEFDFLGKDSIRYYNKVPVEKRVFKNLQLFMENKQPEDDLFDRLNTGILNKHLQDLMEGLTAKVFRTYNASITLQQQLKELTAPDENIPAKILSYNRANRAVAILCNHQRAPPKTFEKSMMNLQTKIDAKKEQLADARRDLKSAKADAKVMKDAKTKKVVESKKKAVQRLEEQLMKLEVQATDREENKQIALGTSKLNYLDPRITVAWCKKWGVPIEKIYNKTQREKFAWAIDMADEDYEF

HGC-27 [3] = test: Antiproliferative activity against human HGC-27 cells assessed as inhibition of cell growth incubated for 48 hrs by MTT assay; format: functional, cell-based; conditions: HGC-27, 48 h, read-out: IC50
[4] = Acute toxicity in BALB/c mouse xenografted with human HGC-27 cells assessed as venous congestion in liver at 40 mg/kg,ip administrated every other day for 17 days by hematoxylin and eosin staining method; format: organism-based; conditions: in vivo, 408 h, time 17 day
[5] = Acute toxicity in BALB/c mouse xenografted with human HGC-27 cells assessed as change in body weight at 40 mg/kg,ip administrated every other day for 17 days; format: organism-based; conditions: in vivo, 408 h, time 17 day
[6] = Acute toxicity in BALB/c mouse xenografted with human HGC-27 cells assessed as venous congestion in spleen at 40 mg/kg,ip administrated every other day for 17 days by hematoxylin and eosin staining method; format: organism-based; conditions: in vivo, 408 h, time 17 day
HGC-27 [7] = test: Antitumor activity against human HGC-27 cells xenografted in BALB/c mouse assessed as tumor growth inhibition at 40 mg/kg,ip administrated every other day for 17 days relative to control; format: functional; conditions: HGC-27, 408 h, time 17 day, read-out: TGI

Compound | IC50 [1] [µM] | IC50 (L02) [µM] | IC50 (HeLa) [µM] | IC50 (A549) [µM] | IC50 (HepG2) [µM] | inhibition [2] | IC50 (HGC-27 [3]) [µM] | Activity [4] | Activity [5] | Activity [6] | inhibition in vivo at 40 mg/kg (HGC-27 [7]) [%]
O=C(CCC[C@@H]1[C@H]2CCCN3CCC[C@@H](CN1C(=O)OCC1c4ccccc4-c4ccccc41)[C@@H]23)Nc1nc2ccccc2[nH]1 | 2.58 | > 64 | 16.1 | 12.3 | 6.45 | Active | 7.38 | – | – | – | –
O=C1CCC[C@@H]2[C@H]3CCCN4CCC[C@@H](CN12)[C@@H]34 [MATRINE] | – | – | 6750 | 5880 | 4360 | – | 4180 | Toxic | Toxic | Toxic | 9.7
Cc1ccc(S(=O)(=O)N2C[C@@H]3CCCN4CCC[C@@H]([C@H]34)[C@H]2CCCc2nc3cc(Br)ccc3n2S(=O)(=O)c2ccc(C)cc2)cc1 | 1.41 | > 64 | 7.45 | 10.8 | 4.92 | Active | 6.36 | – | – | – | –
O=C(OCC1c2ccccc2-c2ccccc21)N1C[C@@H]2CCCN3CCC[C@@H]([C@H]23)[C@H]1CCCc1nc2cc(Cl)c(Cl)cc2[nH]1 | 0.28 | > 64 | 8.46 | 13.2 | 10.8 | Active | 9.78 | – | – | – | –
